Like-named read-outs stand apart in the source and are kept apart here. Square brackets hold non-standard residues; d marks the D form. Peptide text beside a SMILES is read from it.
How the values were obtained:
[1] = tested on: C. quillermondiae clinical strains; test: MIC, clinical yeast strains; type: cell-based, Candida quillermondiae; set-up: unit: μg/ml; details: C. quillermondiae clinical yeast strain 1
Summary of the method: (§1)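 Clinical isolates tested by broth microdilution at 5.0×10^5 cfu/ml with peptides at 0.125–128 μg/ml, incubated 20–24 h at 37° C. Bacteria were grown in Mueller Hinton broth and yeasts in potato dextrose broth. MIC is the lowest concentration showing no visible growth.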

[2] = tested on: Candida albicans clinical strains; test: MIC, clinical yeast strains; type: cell-based; set-up: unit: μg/ml
Summary of the method: as §1

[3] = tested on: Pseudomonas aeruginosa clinical strains; type: cell-based; details: microdilution, Muller Hinton broth-cation adjusted, 0.02% BSA, 0.2% acetic acid
Method: (§2) Minimum inhibition concentrations (MICs) were determined against Escherichia coli (ATCC 25922), Staphylococcus aureus (ATCC 25923), Klebsiella pneumoniae (ATCC 10031) and Pseudomonas aeruginosa (ATCC 27853). Also clinical strains of E. coli, K. pneumoniae, E. cloacae, P. aeruginosa, Serratia marcescens, Proteus mirabilis, S. pneumoniae, Acinetobacter baumannii, A. johnsonii and S. aureus were used for MICs assays. Additionally, clinical strains of yeast including Candida albicans, C. glabrata, C. parapsilosis and C. quillermondiae were used. The susceptibility of these microorganisms to Chain peptides were determined using micro broth dilution assay. Colonies of the respective microorganism from Muller Hinton (MH) agar plates incubated overnight were suspended in MH broth media and final concentration of microorganism was adjusted to 5.0×10^5 cfu/ml. An aliquot of 10 μl of each Chain peptide, or gentamicin, tetracycline as reference antibiotics were added in differing concentrations along with 90 μl of bacterial suspension to 96 well polypropylene plates and incubated at 37° C. for 20 to 24 hours. Concentrations of Chain peptides and reference antibiotics ranged from 0.125 to 128 μg/ml and the MICs were recorded as the lowest concentration with no visual growth of bacteria. Similarly, antifungal MICs were tested in Potato dextrose broth.
(§3) Clinical strains of yeasts including Candida albicans, C. glabrata, C. parapsilosis and C. quillermondiae were also tested with the 12 Chain peptides. The minimum inhibitory concentration (MICs) varied between these peptides and are presented in Tables 4a, 4b, 4c and 5a, 5b, 5c. Peptides Chain 105, 201 and 308 are broad spectrum antimicrobials with MICs between 0.5-32 μg/ml against all the bacteria and yeasts tested, except Serratia marcescens and Proteus mirabilis, against which the MICs were between 64-128 μg/ml. Peptide Chain 306 has narrow spectrum activity against E. coli at 1 μg/ml and for the rest of the bacterial strains at >32 μg/ml (FIG. 10c).

[4] = tested on: Escherichia coli clinical strains; type: cell-based; details: microdilution, Muller Hinton broth-cation adjusted, 0.02% BSA, 0.2% acetic acid
Method: as §2, §3

[5] = tested on: Klebsiella pneumoniae clinical strains; type: cell-based; details: microdilution, Muller Hinton broth-cation adjusted, 0.02% BSA, 0.2% acetic acid
Method: as §2, §3

[6] = tested on: C. parapsilosis clinical strains; test: MIC, clinical yeast strains; type: cell-based, Candida parapsilosis; set-up: unit: µg/ml
Summary of the method: as §1

[7] = tested on: C. glabrata clinical strains; test: MIC, clinical yeast strains; type: cell-based, Candida glabrata; set-up: unit: µg/ml
Summary of the method: as §1

[8] = tested on: Streptococcus pneumoniae clinical strains; type: cell-based; set-up: Minimum inhibitory concentration: unit: μg/ml; details: microdilution, Muller Hinton broth-cation adjusted, 0.02% BSA, 0.2% acetic acid
Method: as §2, §3

[9] = tested on: Serratia marcescens clinical strains; type: cell-based; set-up: Minimum inhibitory concentration: unit: μg/ml; details: microdilution, Muller Hinton broth-cation adjusted, 0.02% BSA, 0.2% acetic acid
Method: as §2, §3

[10] = tested on: Staphylococcus aureus clinical strains; type: cell-based; set-up: Minimum inhibitory concentration: unit: μg/ml; details: microdilution, Muller Hinton broth-cation adjusted, 0.02% BSA, 0.2% acetic acid
Method: as §2, §3

[11] = tested on: Enterobacter cloacae clinical strains; type: cell-based; set-up: Minimum inhibitory concentration: unit: μg/ml; details: microdilution, Muller Hinton broth-cation adjusted, 0.02% BSA, 0.2% acetic acid
Method: as §2, §3

[12] = tested on: Proteus mirabilis clinical strains; type: cell-based; set-up: Minimum inhibitory concentration: unit: μg/ml; details: microdilution, Muller Hinton broth-cation adjusted, 0.02% BSA, 0.2% acetic acid
Method: as §2, §3

CC[C@@H](C)[C@@H](N)C(=O)N[C@H](Cc1c[nH]c2ccccc12)C(=O)N[C@H](CCCCN)C(=O)N[C@H](CCCNC(=N)N)C(=O)N[C@H](Cc1ccccc1)C(=O)N[C@H](CCCNC(=N)N)C(=O)N[C@H](CC(C)C)C(=O)N[C@H](Cc1ccccc1)C(=O)N[C@H](CCCCN)C(=O)N[C@H](CCCCN)C(=O)N[C@H](Cc1c[nH]c2ccccc12)C(=O)O [Chain304D] (H-[dI][dW][dK][dR][dF][dR][dL][dF][dK][dK][dW]-OH)
Minimum inhibitory concentration [1]: 16
Minimum inhibitory concentration ([2]; Candida albicans clinical yeast strain 1): 16
Minimum inhibitory concentration ([2]; Candida albicans clinical yeast strain 2): 16
Minimum inhibitory concentration ([2]; Candida albicans clinical yeast strain 3): 16
Minimum inhibitory concentration ([2]; Candida albicans clinical yeast strain 4): 16
Minimum inhibitory concentration ([2]; Candida albicans clinical yeast strain 5): 32
Minimum inhibitory concentration ([3]; Pseudomonas aeruginosa clinical strain 1): 32
Minimum inhibitory concentration ([3]; Pseudomonas aeruginosa clinical strain 2): 64
Minimum inhibitory concentration ([3]; Pseudomonas aeruginosa clinical strain 3): 64
Minimum inhibitory concentration ([3]; Pseudomonas aeruginosa clinical strain 4): 64
Minimum inhibitory concentration ([3]; Pseudomonas aeruginosa clinical strain 5): 16
Minimum inhibitory concentration ([4]; Escherichia coli clinical strain 1): 1
Minimum inhibitory concentration ([4]; Escherichia coli clinical strain 2): 16
Minimum inhibitory concentration ([4]; Escherichia coli clinical strain 3): 16
Minimum inhibitory concentration ([4]; Escherichia coli clinical strain 4): 32
Minimum inhibitory concentration ([4]; Escherichia coli clinical strain 5): 32
Minimum inhibitory concentration ([5]; Klebsiella pneumoniae clinical strain 1): >128
Minimum inhibitory concentration ([5]; Klebsiella pneumoniae clinical strain 2): >128
Minimum inhibitory concentration ([5]; Klebsiella pneumoniae clinical strain 3): >128
Minimum inhibitory concentration ([5]; Klebsiella pneumoniae clinical strain 4): >128
Minimum inhibitory concentration ([5]; Klebsiella pneumoniae clinical strain 5): 64
Minimum inhibitory concentration ([6]; C. parapsilosis clinical yeast strain 1): 64
Minimum inhibitory concentration ([6]; C. parapsilosis clinical yeast strain 2): 64
Minimum inhibitory concentration ([6]; C. parapsilosis clinical yeast strain 3): 32
Minimum inhibitory concentration ([6]; C. parapsilosis clinical yeast strain 4): 16
Minimum inhibitory concentration ([7]; C. glabrata clinical yeast strain 1): 16
Minimum inhibitory concentration ([7]; C. glabrata clinical yeast strain 2): 16
Minimum inhibitory concentration ([7]; C. glabrata clinical yeast strain 3): 8
Minimum inhibitory concentration ([7]; C. glabrata clinical yeast strain 4): 64
Minimum inhibitory concentration ([8]; Streptococcus pneumoniae clinical strain 1): 128
Minimum inhibitory concentration ([8]; Streptococcus pneumoniae clinical strain 2): 128
Minimum inhibitory concentration ([8]; Streptococcus pneumoniae clinical strain 3): 128
Minimum inhibitory concentration ([8]; Streptococcus pneumoniae clinical strain 4): 128
Minimum inhibitory concentration ([8]; Streptococcus pneumoniae clinical strain 5): 64
Minimum inhibitory concentration ([9]; Serratia marcescens clinical strain 1): >128
Minimum inhibitory concentration ([9]; Serratia marcescens clinical strain 2): >128
Minimum inhibitory concentration ([9]; Serratia marcescens clinical strain 3): >128
Minimum inhibitory concentration ([9]; Serratia marcescens clinical strain 4): >128
Minimum inhibitory concentration ([9]; Serratia marcescens clinical strain 5): >128
Minimum inhibitory concentration ([10]; Staphylococcus aureus clinical strain 1): 32
Minimum inhibitory concentration ([10]; Staphylococcus aureus clinical strain 2): 32
Minimum inhibitory concentration ([10]; Staphylococcus aureus clinical strain 3): 16
Minimum inhibitory concentration ([10]; Staphylococcus aureus clinical strain 4): 16
Minimum inhibitory concentration ([10]; Staphylococcus aureus clinical strain 5): 16
Minimum inhibitory concentration ([11]; Enterobacter cloacae clinical strain 1): 64
Minimum inhibitory concentration ([11]; Enterobacter cloacae clinical strain 2): 64
Minimum inhibitory concentration ([11]; Enterobacter cloacae clinical strain 3): 128
Minimum inhibitory concentration ([11]; Enterobacter cloacae clinical strain 4): 128
Minimum inhibitory concentration ([11]; Enterobacter cloacae clinical strain 5): 32
Minimum inhibitory concentration ([12]; Proteus mirabilis clinical strain 1): >128
Minimum inhibitory concentration ([12]; Proteus mirabilis clinical strain 2): >128
Minimum inhibitory concentration ([12]; Proteus mirabilis clinical strain 3): >128
Minimum inhibitory concentration ([12]; Proteus mirabilis clinical strain 4): >128
Minimum inhibitory concentration ([12]; Proteus mirabilis clinical strain 5): >128
